Results taken from article PMC5421785, “Citrullination only infrequently impacts peptide binding to HLA class II MHC” (PLoS ONE, 2017).
Read-outs that look alike come from different tables or passages of the source. Square brackets hold non-standard residues; d marks the D form. Ends that are not written are not given here. Peptide text beside a SMILES is read from it. Cit = NC(=O)NCCC[C@H](N)C(=O)O

How the values were obtained:
[1] = molecular target: T1, HLA-DRB1*01:01 (Homo sapiens, UniProt P01903+P01911, A100R/D57E/F55L/F60I/F76Y/I96L/L162R/M171V/P40L/Q125E/R42F/V115G/Y59C); test: HLA class II peptide binding, inhibition of radiolabeled peptide binding to purified MHC; conditions: for DRB1*01:01 binding capacity, WT/cit ratio: ratio of WT IC50 to Cit IC50
T1 construct: EBV transformed homozygous cell lines were used as sources of MHC molecules; endogenous in cells; host or cells: EBV transformed homozygous cell lines

[2] = molecular target: T2, HLA-DRB1*04:01 (Homo sapiens, UniProt P01903+P01911, A100K/A169T/F76Y/I96L/K127E/L162R/M171V/N62H/P40V/Q125Y/R42H/S133A/S149N/S66Y/V115G/V209L/W38E); test: as above; conditions: for DRB1*04:01 binding capacity, WT/cit ratio: ratio of WT IC50 to Cit IC50
T2 construct: EBV transformed homozygous cell lines were used as sources of MHC molecules; endogenous in cells; host or cells: EBV transformed homozygous cell lines

[3] = citrullinated 15-mer (X), purified MHC, inhibition of radiolabeled peptide binding, dash = IC50 >40,000 nM, read-out: DRB1*01:01 binding capacity, Cit peptide (IC50 nM)
[4] = citrullinated 15-mer (X), purified MHC, inhibition of radiolabeled peptide binding, dash = IC50 >40,000 nM, read-out: DRB1*04:01 binding capacity, Cit peptide (IC50 nM)
[5] = wild-type (unmodified Arg) 15-mer peptide, purified HLA-DRB1*01:01, read-out: DRB1*01:01 binding capacity, WT peptide (IC50 nM)
[6] = wild-type (unmodified Arg) 15-mer peptide, purified HLA-DRB1*04:01, read-out: DRB1*04:01 binding capacity, WT peptide (IC50 nM)
[7] = citrullinated 15-mer peptide (X = citrulline), purified HLA-DRB1*01:01, read-out: DRB1*01:01 binding capacity, Cit peptide (IC50 nM)
[8] = citrullinated 15-mer peptide (X = citrulline), purified HLA-DRB1*04:01, read-out: DRB1*04:01 binding capacity, Cit peptide (IC50 nM)
[9] = read-out: DRB1*01:01 binding capacity, WT peptide (IC50 nM)
[10] = read-out: DRB1*04:01 binding capacity, WT peptide (IC50 nM)
[11] = >1 = citrullination increases binding
[12] = citrullinated peptide as listed (X at Cit position), read-out: DRB1*01:01 binding capacity Cit peptide (IC50 nM)
[13] = citrullinated peptide as listed (X at Cit position), read-out: DRB1*04:01 binding capacity Cit peptide (IC50 nM)

Compound: CSCC[C@H](NC(=O)[C@H](CCC(=O)O)NC(=O)[C@H](CCC(=O)O)NC(=O)[C@H](CCC(N)=O)NC(=O)[C@H](CC(C)C)NC(=O)[C@H](CCCCN)NC(=O)[C@H](CCC(=O)O)NC(=O)[C@@H](N)CCCNC(N)=O)C(=O)N[C@@H](CC(C)C)C(=O)N[C@@H](CCC(N)=O)C(=O)N[C@@H](CCCNC(=N)N)C(=O)N[C@@H](CCC(=O)O)C(=O)N[C@@H](CCC(=O)O)C(=O)N[C@@H](C)C(=O)N[C@@H](CCC(=O)O)C(=O)O [XEKLQEEMLQREEAE] (H-[Cit]EKLQEEMLQREEAE-OH)
- IC50 [1, 3]: 26100 nM
- IC50 [2, 4]: > 40000 nM

Compound: GPTGVTGPKGARGAQ [Collagen 876 WT]
- IC50 [1, 5]: 952 nM
- IC50 [2, 6]: > 40000 nM

Compound: CSCC[C@H](N)C(=O)N[C@@H](C)C(=O)N[C@@H](CCCNC(N)=O)C(=O)N[C@@H](Cc1c[nH]cn1)C(=O)N[C@@H](CC(C)C)C(=O)N[C@@H](CCCNC(=N)N)C(=O)N[C@@H](CCC(=O)O)C(=O)N[C@@H](Cc1ccc(O)cc1)C(=O)N[C@@H](CCC(N)=O)C(=O)N[C@@H](CC(=O)O)C(=O)N[C@@H](CC(C)C)C(=O)N[C@@H](CC(C)C)C(=O)N[C@@H](CC(N)=O)C(=O)N[C@H](C(=O)N[C@@H](CCCCN)C(=O)O)C(C)C [MAXHLREYQDLLNVK] (H-MA[Cit]HLREYQDLLNVK-OH)
- IC50 [1, 7]: 494 nM
- IC50 [2, 8]: 4320 nM

Compound: CSCC[C@H](NC(=O)[C@H](CCC(=O)O)NC(=O)[C@H](CCC(=O)O)NC(=O)[C@H](CCC(=O)O)NC(=O)[C@H](Cc1ccc(O)cc1)NC(=O)[C@H](CC(C)C)NC(=O)[C@H](CC(=O)O)NC(=O)CNC(=O)[C@H](CC(C)C)NC(=O)[C@H](CCCNC(N)=O)NC(=O)[C@H](CO)NC(=O)[C@H](CCCCN)NC(=O)CNC(=O)[C@@H](N)CCC(N)=O)C(=O)N[C@@H](CCCNC(=N)N)C(=O)O [QGKSXLGDLYEEEMR] (H-QGKS[Cit]LGDLYEEEMR-OH; N-terminus and C-terminus assumed)
- IC50 [1, 3]: > 40000 nM
- DRB1*01:01 binding capacity, WT/cit ratio [1]: 0.7
- IC50 [2, 4]: > 40000 nM
- DRB1*04:01 binding capacity, WT/cit ratio [2]: 1.0

Compound: RGQPGVMGFPGPKGA [Collagen 596 WT]
- IC50 [1, 5]: 422 nM
- IC50 [2, 6]: > 40000 nM

Compound: NDALRQAKQESTEYR [Vimentin 306 WT]
- IC50 [1, 5]: 15400 nM
- IC50 [2, 6]: > 40000 nM

Compound: CC(C)C[C@H](NC(=O)[C@H](CC(N)=O)NC(=O)[C@@H](N)[C@@H](C)O)C(=O)N[C@@H](CC(=O)O)C(=O)N[C@@H](CO)C(=O)N[C@@H](CC(C)C)C(=O)N1CCC[C@H]1C(=O)N[C@@H](CC(C)C)C(=O)N[C@H](C(=O)N[C@@H](CC(=O)O)C(=O)N[C@H](C(=O)N[C@@H](Cc1c[nH]cn1)C(=O)N[C@@H](CO)C(=O)N[C@@H](CCCCN)C(=O)N[C@@H](CCCNC(N)=O)C(=O)O)[C@@H](C)O)C(C)C [TNLDSLPLVDTHSKX] (H-TNLDSLPLVDTHSK[Cit]-OH)
- IC50 [1, 7]: 772 nM
- IC50 [2, 8]: > 40000 nM

Compound: GIVGLPGQRGERGFP [Collagen 981 WT]
- IC50 [1, 5]: 6.4 nM
- IC50 [2, 6]: 2450 nM

Compound: CC(C)C[C@H](NC(=O)[C@H](CO)NC(=O)[C@H](Cc1ccc(O)cc1)NC(=O)[C@@H](NC(=O)[C@H](CCCNC(=N)N)NC(=O)[C@@H](NC(=O)[C@H](CO)NC(=O)[C@@H](NC(=O)[C@@H](NC(=O)[C@@H](NC(=O)[C@H](Cc1ccc(O)cc1)NC(=O)[C@H](CO)NC(=O)[C@H](CCCNC(N)=O)NC(=O)[C@H](CO)NC(=O)[C@@H](N)CO)C(C)C)[C@@H](C)O)[C@@H](C)O)[C@@H](C)O)[C@@H](C)O)C(=O)O [SSXSYVTTSTRTYSL] (H-SS[Cit]SYVTTSTRTYSL-OH)
- IC50 [1, 3]: 93 nM
- IC50 [2, 4]: 357 nM

Compound: CC(C)C[C@H](NC(=O)[C@H](CO)NC(=O)[C@H](CO)NC(=O)[C@H](Cc1ccccc1)NC(=O)[C@H](CC(N)=O)NC(=O)[C@@H]1CCCN1)C(=O)N[C@@H](CC(N)=O)C(=O)N[C@@H](CC(C)C)C(=O)N[C@@H](CCCNC(N)=O)C(=O)N[C@@H](CCC(=O)O)C(=O)N[C@H](C(=O)N[C@@H](CC(N)=O)C(=O)N[C@@H](CC(C)C)C(=O)N[C@@H](CC(=O)O)C(=O)N[C@@H](CO)C(=O)O)[C@@H](C)O [PNFSSLNLXETNLDS] (H-PNFSSLNL[Cit]ETNLDS-OH)
- IC50 [1, 7]: 448 nM
- IC50 [2, 8]: 1950 nM

Compound: CC(C)C[C@H](NC(=O)[C@H](CC(N)=O)NC(=O)[C@H](CC(=O)O)NC(=O)[C@H](CCCNC(=N)N)NC(=O)[C@H](CCC(=O)O)NC(=O)[C@@H](NC(=O)[C@H](CCC(=O)O)NC(=O)[C@@H](NC(=O)[C@H](CCCNC(N)=O)NC(=O)[C@H](C)NC(=O)[C@H](CCCCN)NC(=O)[C@H](CC(=O)O)NC(=O)[C@@H](N)CC(N)=O)C(C)C)C(C)C)C(=O)N[C@@H](C)C(=O)N[C@@H](CCC(=O)O)C(=O)O [NDKAXVEVERDNLAE] (H-NDKA[Cit]VEVERDNLAE-OH)
- IC50 [1, 3]: 1070 nM
- IC50 [2, 4]: 905 nM

Compound: REKLQEEMLQREEAE [Vimentin 186 WT]
- IC50 [1, 9]: 13800 nM
- IC50 [2, 10]: > 40000 nM

Compound: CC[C@H](C)[C@H](NC(=O)[C@H](CCC(=O)O)NC(=O)[C@H](CCC(=O)O)NC(=O)[C@H](CCC(N)=O)NC(=O)[C@H](CC(C)C)NC(=O)[C@H](CO)NC(=O)[C@H](CCC(=O)O)NC(=O)[C@@H](NC(=O)[C@H](CCCCN)NC(=O)[C@H](CCCNC(N)=O)NC(=O)[C@@H](N)CCC(=O)O)C(C)C)C(=O)N[C@@H](C)C(=O)N[C@@H](Cc1ccccc1)C(=O)N[C@@H](CC(C)C)C(=O)N[C@@H](CCCCN)C(=O)O [EXKVESLQEEIAFLK] (H-E[Cit]KVESLQEEIAFLK-OH)
- IC50 [1, 3]: 148 nM
- IC50 [2, 4]: > 40000 nM

Compound: CSCC[C@H](NC(=O)[C@H](CCC(=O)O)NC(=O)[C@H](CCC(=O)O)NC(=O)[C@H](CCCCN)NC(=O)[C@H](CCSC)NC(=O)[C@@H](N)CC(N)=O)C(=O)N[C@@H](C)C(=O)N[C@@H](CCCNC(=N)N)C(=O)N[C@@H](Cc1c[nH]cn1)C(=O)N[C@@H](CC(C)C)C(=O)N[C@@H](CCCNC(=N)N)C(=O)N[C@@H](CCC(=O)O)C(=O)N[C@@H](Cc1ccc(O)cc1)C(=O)N[C@@H](CCC(N)=O)C(=O)N[C@@H](CC(=O)O)C(=O)O [Vimentin 371 WT]
- IC50 [1, 5]: 3020 nM
- IC50 [2, 6]: > 40000 nM

Compound: CSCC[C@H](NC(=O)[C@@H]1CCCN1C(=O)CNC(=O)[C@H](CCC(N)=O)NC(=O)[C@H](C)NC(=O)CNC(=O)[C@H](C)NC(=O)[C@H](CCC(=O)O)NC(=O)CNC(=O)[C@H](CCCNC(N)=O)NC(=O)[C@H](CC(=O)O)NC(=O)CN)C(=O)NCC(=O)N1CCC[C@H]1C(=O)N[C@@H](CO)C(=O)O [GDXGEAGAQGPMGPS] (H-GD[Cit]GEAGAQGPMGPS-OH; N-terminus and C-terminus assumed)
- IC50 [1, 7]: > 40000 nM
- DRB1*01:01 binding capacity, WT/cit ratio [1, 11]: 0.2
- IC50 [2, 8]: > 40000 nM
- DRB1*04:01 binding capacity, WT/cit ratio [2, 11]: 1.0

Compound: CC[C@H](C)[C@H](NC(=O)[C@H](CC(=O)O)NC(=O)[C@@H](NC(=O)[C@@H](NC(=O)[C@@H]1CCCN1C(=O)[C@H](CC(C)C)NC(=O)[C@H](CCCNC(=N)N)NC(=O)[C@H](CO)NC(=O)[C@@H](NC(=O)[C@H](CCCCN)NC(=O)[C@H](CCC(N)=O)NC(=O)[C@H](CO)NC(=O)[C@H](CCCNC(N)=O)NC(=O)[C@H](Cc1ccc(O)cc1)NC(=O)[C@@H](N)CCC(=O)O)[C@@H](C)O)[C@@H](C)CC)[C@@H](C)CC)C(=O)O [EYXSQKTSRLPIIDI] (H-EY[Cit]SQKTSRLPIIDI-OH)
- IC50 [1, 12]: 5.9 nM
- IC50 ([1]; value of the wild-type (non-citrullinated) counterpart of the listed peptide, read-out: DRB1*01:01 binding capacity WT peptide (IC50 nM)): 14 nM
- IC50 [2, 13]: 473 nM
- IC50 ([2]; value of the wild-type (non-citrullinated) counterpart of the listed peptide, read-out: DRB1*04:01 binding capacity WT peptide (IC50 nM)): 314 nM

Compound: CSCC[C@H](NC(=O)[C@H](CCC(N)=O)NC(=O)[C@@H](NC(=O)[C@H](CC(N)=O)NC(=O)[C@H](C)N)C(C)C)C(=O)N[C@H](C(=O)N[C@@H](Cc1ccccc1)C(=O)N[C@@H](CC(C)C)C(=O)N[C@@H](CCCNC(N)=O)C(=O)N[C@@H](CC(C)C)C(=O)N[C@@H](CC(C)C)C(=O)N[C@@H](CO)C(=O)N[C@H](C(=O)N[C@@H](CCC(=O)O)C(=O)NCC(=O)O)[C@@H](C)O)[C@@H](C)O [ANVQMTFLXLLSTEG] (H-ANVQMTFL[Cit]LLSTEG-OH)
- IC50 [1, 12]: 65 nM
- IC50 [2, 13]: 1060 nM

Compound: CC(C)C[C@H](NC(=O)[C@H](CO)NC(=O)[C@H](Cc1ccccc1)NC(=O)[C@H](CC(=O)O)NC(=O)[C@@H](NC(=O)[C@H](CO)NC(=O)[C@H](CC(=O)O)NC(=O)[C@H](CCC(N)=O)NC(=O)[C@H](CC(C)C)NC(=O)[C@H](CC(C)C)NC(=O)[C@H](CCCNC(=N)N)NC(=O)[C@@H](NC(=O)CN)C(C)C)C(C)C)C(=O)N[C@@H](C)C(=O)N[C@@H](CC(=O)O)C(=O)O [Vimentin 76 WT]
- IC50 [1, 9]: 358 nM
- IC50 [2, 10]: 596 nM
